Laboratory results: article PMC6325200, “Effects of Microplate Type and Broth Additives on Microdilution MIC Susceptibility Assays” (Antimicrobial Agents and Chemotherapy, 2018)
Values after ≈ are worked out from the molar mass of the structure shown. Read-outs that look alike come from different tables or passages of the source.

How the values were obtained:
MRSA ATCC 43300 = settings: n = 2
Procedure: (§1) A positive control of a row of just the bacteria and a negative control of only the medium were included for every plate tested.
(§2) The compounds along with standard antibiotics were serially diluted 2-fold across the 96-well plates. […] A sample of each culture was then diluted 40-fold in fresh MH broth (in presence and absence of Tween) and incubated at 37°C for 2 to 3 h.
For experiments in the presence of surfactant, 2% beractant (25 mg/ml) was added to the mid-log-phase cultures and mixed gently and added to all the 96-well plates. For experiments in the presence of serum, a mixture of 50% of human serum along with 50% MHB was prepared and used throughout the experiment.

E. faecalis ATCC 29212 = assay: microbe, parasite or virus in culture; settings: Corning NBS; MHB +T80; n = 2
Procedure: as §1, §2

[1] = tested on: S. aureus GISA NRS 2; ATCC 700698; assay: microbe, parasite or virus in culture; settings: Corning NBS; MHB -T80; n = 2
Procedure: as §1, §2

S. pyogenes ATCC 12344 = settings: ATCC 12344
Procedure: as §1, §2

MRSA = settings: literature value; cited from earlier work
Excerpt: TABLE 1 Literature MIC values for tested antibiotics | column: MIC (µg/ml) (reference[s]) / MRSA

S. aureus ATCC 29123 = settings: cited from earlier work
Procedure: The majority of antibiotic stock solutions for testing are prepared in water, phosphate buffer, or pH-adjusted aqueous solution (106 out of 139 reported in CLSI M100 [see Table 6A, “Solvents and diluents for preparation of stock solutions of antimicrobial agents”]) ([3]). […] Furthermore, the CLSI reference MIC quality control range tabulated for dalbavancin an ...

[2] = estimated; cited from earlier work
Excerpt: Other assay additives can affect MIC values. […] This in turn translates into reduced ...

## CN[C@H]1C(=O)N[C@@H]2Cc3ccc(cc3)Oc3cc4cc(c3O[C@@H]3O[C@H](C(=O)O)[C@@H](O)[C@H](O)[C@H]3NC(=O)CCCCCCCCC(C)C)Oc3ccc(cc3Cl)[C@@H](O)[C@@H]3NC(=O)[C@H](NC(=O)[C@@H]4NC(=O)[C@@H](NC2=O)c2cc(cc(O)c2Cl)Oc2cc1ccc2O)c1ccc(O)c(c1)-c1c(O[C@H]2O[C@H](CO)[C@@H](O)[C@H](O)[C@@H]2O)cc(O)cc1[C@@H](C(=O)NCCCN(C)C)NC3=O [Dalbavancin, dalbavancin]
MRSA ATCC 43300; Corning flat TC plate, MHB −T80, no additive
  MIC: 4 µg/mL (≈ 2.2 µM)
MRSA ATCC 43300; Trek PS, MH + 2% LHB, 2% LS
  MIC: 0.125 µg/mL
MRSA ATCC 43300; Trek PS, MH + 2% LHB, no additive
  MIC: 0.125 µg/mL
E. faecalis ATCC 29212
  MIC: 0.125 µg/mL (≈ 0.0688 µM)
[1]
  MIC: 0.125 µg/mL (≈ 0.0688 µM)
S. pyogenes ATCC 12344
  MIC: ≤ 0.003 µg/mL
MRSA
  MIC (literature): 0.06 ([68], [69]) µg/ml
S. aureus ATCC 29123; CLSI-consistent value, 0.002% polysorbate 80
  MIC: 0.06 µg/mL (≈ 0.033 µM)
S. aureus ATCC 29123; dilutions in contact with plastic for as little as 30 min before inoculation with surfactant-containing media
  MIC: 2 to 8 µg/mL
[2]
  half-life: 220 to 288 h
